Results on 52 compounds are retold here after patent publication US20250282742A1, “BENZOFURAN DERIVATIVES FOR TARGETING AUTOPHAGY” (Automera PTE. LTD, priority 2024, published 2025).

The subject of the assay is p62 puncta in HeLa cells. Nature of the assay: p62 puncta assay (immunocytochemistry and imaging, EVOS M7000 or Operetta CLS). The class given is cell-based. Particulars: Homo sapiens, fold change in p62 puncta levels relative to DMSO control, 24 hr. As to the method:
HeLa cells were seeded in coated 96-well plates (10,000 cells) and allowed to adhere overnight. After 24 hours of treatment with either vehicle (DMSO) or test compounds, the media was discarded, and cells were rinsed with ice-cold 1×PBS before fixation by 4% formaldehyde or paraformaldehyde for 20 min. Cells were then washed with 1×PBS and permeabilized with 0.1% Triton X-100 in PBS for 20 min and blocked with Blocking Buffer in PBS for 1 hour. The cells were incubated thereafter for 1 hour with anti-p62 primary antibody in Blocking Buffer, followed by incubation with secondary antibody for 1 hour. DAPI dye was used to visualize nuclei of fixed cells. The blocking buffer used were 5% Fetal Bovine Serum (FBS, ThermoFIsher Scientific, 10270106) and Li-cor Intercept (PBS) Blocking Buffer (Li-cor, 927-70001). The primary antibody used was mouse anti-p62 primary antibody (Novus Biologicals, H00008878-MO1). The secondary antibodies used were goat anti-mouse Alexa Fluor Plus 488 secondary antibody (Invitrogen, GOXMS) and goat anti-mouse Alexa Fluor 488 secondary antibody (Invitrogen, A-11029). The DAPI dyes used were DAPI dye (Invitrogen, 62248) and DAPI dye (Invitrogen, D1306).
For the EVOS M7000 System, cells were imaged on the EVOS M7000 microscope using a 20× air objective (Nikon, N.A 0.45). DAPI and p62 channels were illuminated with LED light cubes using integrated hard-coated filter sets for DAPI (357/447 nm) and GFP (470/525 nm) respectively. Images were analysed for p62 puncta count on the Celeste 6.0 software.
For the Operetta CLS System, cells were imaged on the Operetta CLS using a 63× water objective on the DAPI and Alexa 488 channels. Images were analysed for p62 puncta count on the Harmony 5.1 software.
HeLa cells were treated with compounds for 24 hours to evaluate the effect of these compounds on p62 puncta activity. The resulting changes in levels of p62 puncta were assessed by imaging, either on the EVOS M7000 or Operetta CLS systems as described in experimental procedures. The fold change of p62 puncta levels induced by compound treatment relative to vehicle control (DMSO) was determined and summarized in Table 10.
Regarding `OCCNCc1ccc2cc(CN3CCCCC3)oc2c1` [compound 25], the fold induction at 5 µM was below 2.
In the case of `OCCNCc1ccc2cc(-c3ccccc3Cl)oc2c1` [compound 72] it was above 2; in that of `OCCNCc1ccc2cc(-c3cccc(Cl)c3)oc2c1` [compound 73], above 2; in that of `OCCNCc1ccc2cc(-c3ccc(Cl)cc3)oc2c1` [compound 74], above 2.
In the case of `COc1ccc(-c2cc3ccc(CNCCO)cc3o2)cc1` [compound 76] it was above 2; in that of `CC(C)NCCOCc1ccc2cc(-c3ccccc3)oc2c1` [compound 77], above 2.
In the case of `CC(C)NCC(O)COc1ccc2cc(-c3ccccc3)oc2c1` (stereo not shown) [compound 78] it was above 2; in that of `CC(C)NCCOCc1ccc2cc(CCc3ccc(F)cc3)oc2c1` [compound 79], above 2.
Take `CC(C)NCC(O)COc1ccc2cc(CCc3ccc(F)cc3)oc2c1` (stereo not shown) [compound 80]: the fold induction at 5 µM was above 2.
`CC(C)(C)OC(=O)NCCOCCOCCOCCNCc1ccc2cc(Cc3ccccc3)oc2c1` [compound 82, tert-butyl (1-(2-benzylbenzofuran-6-yl)-5,8,11-trioxa-2-azatridecan-13-yl)carbamate]: the fold induction at 5 µM was below 2.
In the case of `C#CCCOCCOCCNCc1ccc2cc(CCc3ccc(F)cc3)oc2c1` [compound 83, 2-(2-(but-3-yn-1-yloxy)ethoxy)-N-((2-(4-fluorophenethyl)benzofuran-6-yl)methyl)ethan-1-amine] it was above 2; in that of `C#CCCOCCOCCOCCNCc1ccc2cc(CCc3ccc(F)cc3)oc2c1` [compound 84], above 2.
The value for `CNCCOCCOCCNCc1ccc2cc(CCc3ccc(F)cc3)oc2c1` [compound 86] was above 2; that for `CNCCOCCOCCOCCNCc1ccc2cc(CCc3ccc(F)cc3)oc2c1` [compound 87] was above 2.
In the case of `CC(C)(C)OC(=O)N1CCC(OCCOCCNCc2ccc3cc(CCc4ccc(F)cc4)oc3c2)CC1` [compound 90] it was above 2; in that of `C#CCCOCCOCCOCCNCc1ccc2cc(-c3ccccc3)oc2c1` [compound 94], above 2; in that of `COC(=O)CCOCCOCCNCc1ccc2cc(-c3ccccc3)oc2c1` [compound 95, methyl 3-(2-(2-(((2-phenylbenzofuran-6-yl)methyl)amino)ethoxy)ethoxy)propanoate], above 2.
Take `C#CCCOCCOCCOCCNCc1ccc2cc(Cc3ccc(Cl)cc3)oc2c1` [compound 96]: the fold induction at 5 µM was above 2.
In the case of `C#CCCOCCOCCNCC(O)COc1ccc2cc(Cc3ccccc3)oc2c1` (stereo not shown) [compound 98, 1-((2-benzylbenzofuran-6-yl)oxy)-3-((2-(2-(but-3-yn-1-yloxy)ethoxy)ethyl)amino)propan-2-ol] it was above 2; in that of `COC(=O)CCOCCNCC(O)COc1ccc2cc(Cc3ccccc3)oc2c1` (stereo not shown) [compound 99], below 2.
The value for `COCCNCc1ccc2cc(-c3ccccc3)oc2c1` [compound 105] was above 2.
In the case of `OCCNCc1ccc2nc(-c3ccccc3)oc2c1` [compound 106] it was above 2.
As to `COC1CC(NCc2ccc3cc(-c4ccccc4)oc3c2)C1` (stereo not shown) [compound 107], the fold induction at 5 µM was below 2.
`COC1CN(Cc2ccc3cc(-c4ccccc4)oc3c2)C1` [compound 108]: the fold induction at 5 µM was above 2.
The value for `CO[C@@H]1CCCN(Cc2ccc3cc(-c4ccccc4)oc3c2)C1` [compound 109] was below 2; that for `CO[C@H]1CCCN(Cc2ccc3cc(-c4ccccc4)oc3c2)C1` [compound 110] was below 2.
Compound `COC1CN(Cc2ccc3cc(-c4cccnc4)oc3c2)C1` [compound 112] showed a fold induction at 5 µM below 2.
As for `OCCNCc1ccc2nc(-c3ccccc3)sc2c1` [compound 113], the fold induction at 5 µM is above 2.
On to `CNCCCOCCOCCNCc1ccc2cc(-c3ccccc3)oc2c1` [compound 120], for which the fold induction at 5 µM is above 2.
The value for `CNC(=O)CCOCCOCCNCc1ccc2cc(-c3ccccc3)oc2c1` [compound 121] was below 2.
In the case of `CC(C)(C)OC(=O)NCCOCCNCc1ccc2cc(CCc3ccc(F)cc3)oc2c1` [compound 122] it was above 2.
The value for `CC(C)(C)OC(=O)N1CCC(COCCNCc2ccc3cc(CCc4ccc(F)cc4)oc3c2)CC1` [compound 123] was above 2; that for `CC(C)(C)OC(=O)NCCOCCOCCNCc1ccc2cc(CCc3ccc(F)cc3)oc2c1` [compound 124] was above 2; that for `CC(C)(C)OC(=O)NCCOCCOCCOCCNCc1ccc2cc(CCc3ccc(F)cc3)oc2c1` [compound 125] was above 2.
`C#CCOCCOCCOCCNCc1ccc2cc(CCc3ccc(F)cc3)oc2c1` [compound 126] came in with a fold induction at 5 µM above 2.
The compound `CC(C)(C)OC(=O)CCOCCOCCNCc1ccc2cc(CCc3ccc(F)cc3)oc2c1` [compound 127] returned a fold induction at 5 µM above 2.
In the case of `CC(C)(C)OC(=O)COCCCOCCNCc1ccc2cc(CCc3ccc(F)cc3)oc2c1` [compound 128] it was above 2.
In the case of `C#CCOCCOCCNCc1ccc2cc(CCc3ccc(F)cc3)oc2c1` [compound 129] it was above 2.
In turn, `CC(C)(C)OC(=O)COCCNCc1ccc2cc(CCc3ccc(F)cc3)oc2c1` [compound 131] yielded a fold induction at 5 µM above 2.
In the case of `CC(C)(C)OC(=O)CCOCCNCc1ccc2cc(CCc3ccc(F)cc3)oc2c1` [compound 132], the fold induction at 5 µM is above 2.
The value for `C#CCCOCCNCc1ccc2cc(CCc3ccc(F)cc3)oc2c1` [compound 133] was above 2; that for `CC(C)(C)OC(=O)c1ccc(COCCNCc2ccc3cc(CCc4ccc(F)cc4)oc3c2)cc1` [compound 134] was above 2; that for `COC(=O)c1cccc(COCCNCc2ccc3cc(CCc4ccc(F)cc4)oc3c2)c1` [compound 135] was below 2.
In the case of `Fc1ccc(CCc2cc3ccc(CNCCOCCCCl)cc3o2)cc1` [compound 136] it was above 2; in that of `CC(C)(C)OC(=O)CCCCOCCNCc1ccc2cc(CCc3ccc(F)cc3)oc2c1` [compound 137], below 2; in that of `C#CCCCCCOCCNCc1ccc2cc(CCc3ccc(F)cc3)oc2c1` [compound 138], above 2.
The value for `CC(C)(C)OC(=O)CCCCCCCCOCCNCc1ccc2cc(CCc3ccc(F)cc3)oc2c1` [compound 139] was below 2; that for `CC(C)(C)OC(=O)CCCCCOCCNCc1ccc2cc(CCc3ccc(F)cc3)oc2c1` [compound 140] was below 2.
Consider `C#CCCCCCCOCCNCc1ccc2cc(CCc3ccc(F)cc3)oc2c1` [compound 141], for which the fold induction at 5 µM is above 2.
In the case of `CCOC(=O)C1CCN(C(=O)COCCNCc2ccc3cc(CCc4ccc(F)cc4)oc3c2)CC1` [compound 142] it was above 2.
The value for `CC(C)(C)OC(=O)CCCOCCNCc1ccc2cc(CCc3ccc(F)cc3)oc2c1` [compound 145] was below 2; that for `COC(=O)C1(COCCNCc2ccc3cc(CCc4ccc(F)cc4)oc3c2)COC1` [compound 146] was below 2.
